Assay results: patent US11731933B2, “Device and method for the desalination of water by means of thermal deionisation and liquid-phase ion extraction liquid” (ADIONICS, priority 2015, dated 2023)
≈ marks a conversion by molar mass, not a printed value. Where “and” joins values, the source holds several entries; their conditions need not be identical. Equal entries are not always repeated. Where two headings read alike, the source gives them in different places.

Assays:
[1] = Solubility in water (UV-visible spectrometry); format: physicochemical; conditions: water
Source text: The hydrophobicity or solubility of a compound can be measured by standard methods and in particular by UV-visible spectrometry.

[2] = NaCl extraction from 0.4M NaCl water by ASM + Calix[4]Est in chloroform (Example 11); conditions: for NaCl - 20° C. % ext (average) / NaCl - 60° C. % ext (average): average molar extraction; for Mol % Cl- extracted from the water to be treated / Mol % Na+ extracted from the water to be treated: CEM 0.3 Mol/L, ASM 0.3 Mol/L in CHCl3, 0.4 M NaCl; for Δ % ext: difference 20° C. minus 60° C.
Protocol: The extraction composition is obtained by solubilizing an amount of 4-tert-butyl Calix[4]arene tetraethyl Ester (CAS No. 97600-39-0) and ASM in chloroform CHCl3 to obtain a final concentration after solubilization of the CEM and ASM of 0.3 mol/L for Calix[4]Est and of 0.3 mol/L for ASM, respectively. These sealed formulations were then orbitally stirred at 500 rpm for 2 hours after adding an equivalent volume of twice distilled water to allow water saturation of the entire formulation and control of pH output (pH=7). The extraction composition is then put to stand to settle. All the compositions tested are stable and rapidly decanted (a few minutes at the most).
A 0.4 mol/L NaCl aqueous solution was prepared from twice distilled water.
The organic extraction composition is then slightly heated to promote solubilization of the compounds by hot air gun (temperature of about 50 to 60° C.) for a few seconds (10 to 30 seconds) until a clear solution is obtained.
3 mL of the organic extraction composition is then removed from the lower phase of the settled two-phase mixture and transferred to a vial containing 3 mL of salt water at 0.4 M NaCl and then the flask is sealed and orbitally stirred (at 500 revolutions per minute), for 2 hours at room temperature (RT), that is to say between 20 and 25° C. In the case of extraction at 60° C., magnetic stirring (at 500 revolutions per minute), for 2 hours, is carried out with indirect heating in a metal mold on a heating plate. It is verified that droplets of the order of 1-2 mm are present during these agitations in order to be certain to achieve equilibrium in the NaCl distribution between the two liquid phases at the end of stirring. The appearance of the organic and aqueous phases is clear and colorless or slightly cloudy.
After stirring for 2 hours, stirring is stopped and the solution is put to stand to settle within 10 minutes, at least until the two phases have completely separated off, at the temperature of the test. The upper aqueous phase is then removed and then stirred and diluted for analysis of its salinity by a Metrohm Ion Chromatograph incorporating a suitable cation analysis column and a suitable anion analysis column. Similarly, the initial aqueous solution of NaCl at 0.4M is also analyzed by this ion chromatograph to determine its relative molar concentration in sodium and in chlorides. AN extractions and analyzes were duplicated.

[3] = NaCl extraction from 0.3M NaCl water by ASMC7 at four concentrations + Calix[4]Est in chloroform (Example 12)
Protocol: Four extraction compositions were obtained by solubilizing a constant amount of 4-tert-butylCalix[4]arene tetraethylEster (CAS No. 97600-39-0) and four increasing amounts of ASMC7 in chloroform CHCl3 to obtain four final concentrations after solubilization of CEM and ASM, from 0.34 to 0.36 mol/L for Calix[4]Est and 0.36 mol/L, 0.71 mol/L, 1.09 mol/L and 1.49 mol/L for ASMC7, respectively. These four sealed formulations were then orbitally stirred at 500 rpm for 2 hours after adding an equivalent volume of twice distilled water to allow water saturation of the entire formulation and control of pH at the output (pH=7). The extraction composition is then put to stand for settling. All the compositions tested are stable and rapidly decanted (a few minutes at the most).
An 0.3 mol/L NaCl aqueous solution was prepared from twice distilled water.
3 ml of each organic extraction composition are then removed in the lower phase of the settled two-phase mixture and transferred to four vials, each containing 3 ml of the salt water at 0.3M NaCl, then the flasks are sealed and orbitally stirred (at 500 revolutions per minute), for 2 hours at room temperature (RT), that is to say between 20 and 25° C. In the case of extraction at 60° C., a magnetic stirring (at 500 revolutions per minute), for 2 hours, is carried out with indirect heating in a metal mold on a heating plate. It is verified that droplets of the order of 1-2 mm are present during these agitations in order to be certain to reach equilibrium in the NaCl distribution between the two liquid phases at the end of stirring. The appearance of the organic and aqueous phases is clear and colorless for these 4 formulations tested.
After stirring for 2 hours, stirring is stopped and the solution is put to stand for settling within 10 minutes, at least until the two phases have completely separated off, at the test temperature. Then, the four upper aqueous phases are separately taken and then stirred and diluted for analysis of their salinity by a Metrohm Ion Chromatograph incorporating a suitable cation analysis column and a suitable anion analysis column. Similarly, the initial aqueous solution of 0.3M NaCl is also analyzed by this ion chromatograph to determine its relative molar concentration of sodium and chlorides. All extractions and analyzes were duplicated.

[4] = 60° C., CEM 0.341, ASMC7 0.708 Mol/L, ratio 2.08
[5] = 60° C., CEM 0.345, ASMC7 0.358 Mol/L, ratio 1.04
[6] = 60° C., CEM 0.349, ASMC7 1.088 Mol/L, ratio 3.12
[7] = 60° C., CEM 0.358, ASMC7 1.488 Mol/L, ratio 4.16
[8] = RT, CEM 0.341, ASMC7 0.708 Mol/L, ratio 2.08
[9] = RT, CEM 0.345, ASMC7 0.358 Mol/L, ratio 1.04
[10] = RT, CEM 0.349, ASMC7 1.088 Mol/L, ratio 3.12
[11] = RT, CEM 0.358, ASMC7 1.488 Mol/L, ratio 4.16

CC(O)c1cccc(C(F)(F)C(F)(F)C(F)(F)F)c1 (centres unmarked)
solubility [1]: 420 µM (≈ 122 µg/mL)

CCCC(O)c1cc(C(F)(F)F)cc(C(F)(F)F)c1 (centres unmarked)
solubility ([1]; read-out: Solubility in water): 480 µM (≈ 137 µg/mL)

OC(c1cccc(C(F)(F)F)c1)c1cccc(C(F)(F)F)c1
solubility ([1]; read-out: Solubility in water): 70 µM (≈ 22.4 µg/mL)

CCCCCCCC(=O)Nc1cc(C(F)(F)F)cc(C(F)(F)F)c1 [ASMC7, N-[3,5-bis(trifluoromethyl)phenyl]octanamide]
NaCl - 20° C. % ext (average) [2]: 24.6%
Mol % Cl- extracted from the water to be treated ([2]; 60° C.): 7.6% and 7.3%
Mol % Na+ extracted from the water to be treated ([2]; 60° C.): 5.5% and 5.4%
NaCl - 60° C. % ext (average) ([2]; 60° C.): 6.3%
Mol % Cl- extracted from the water to be treated ([2]; RT): 26.3% and 25.9%
Mol % Na+ extracted from the water to be treated ([2]; RT): 23.6% and 22.8%
Δ % ext [2]: 18.4%
Mol % of Cl− extracted from water to be treated [3, 4]: 26.6% and 27.4%
Mol % of Na+ extracted from water to be treated [3, 4]: 28.1% and 28.2%
Mol % of Cl− extracted from water to be treated [3, 5]: 13.0% and 14.1%
Mol % of Na+ extracted from water to be treated [3, 5]: 9.9% and 13.1%
Mol % of Cl− extracted from water to be treated [3, 6]: 31.0% and 30.4%
Mol % of Na+ extracted from water to be treated [3, 6]: 37.7% and 39.5%
Mol % of Cl− extracted from water to be treated [3, 7]: 45.6% and 39.9%
Mol % of Na+ extracted from water to be treated [3, 7]: 48.4% and 46.9%
Mol % of Cl− extracted from water to be treated [3, 8]: 44.4%
Mol % of Na+ extracted from water to be treated [3, 8]: 44.2% and 45.1%
Mol % of Cl− extracted from water to be treated [3, 9]: 27.9% and 27.2%
Mol % of Na+ extracted from water to be treated [3, 9]: 27.9% and 21.7%
Mol % of Cl− extracted from water to be treated [3, 10]: 51.2% and 52.9%
Mol % of Na+ extracted from water to be treated [3, 10]: 60.0% and 59.8%
Mol % of Cl− extracted from water to be treated [3, 11]: 64.6% and 65.6%
Mol % of Na+ extracted from water to be treated [3, 11]: 71.2% and 65.0%
Δ % ext ([3]; [ASMC7]/[CEM] 1.04): 13.6%
NaCl - 20° C. % ext (average) ([3]; [ASMC7]/[CEM] 1.04): 26.2%
NaCl - 60° C. % ext (average) ([3]; [ASMC7]/[CEM] 1.04, 60° C.): 12.5%
Δ % ext ([3]; [ASMC7]/[CEM] 2.08): 16.9%
NaCl - 20° C. % ext (average) ([3]; [ASMC7]/[CEM] 2.08): 44.5%
NaCl - 60° C. % ext (average) ([3]; [ASMC7]/[CEM] 2.08, 60° C.): 27.6%
Δ % ext ([3]; [ASMC7]/[CEM] 3.12): 21.3%
NaCl - 20° C. % ext (average) ([3]; [ASMC7]/[CEM] 3.12): 55.9%
NaCl - 60° C. % ext (average) ([3]; [ASMC7]/[CEM] 3.12, 60° C.): 34.5%
Δ % ext ([3]; [ASMC7]/[CEM] 4.16): 21.4%
NaCl - 20° C. % ext (average) ([3]; [ASMC7]/[CEM] 4.16): 66.6%
NaCl - 60° C. % ext (average) ([3]; [ASMC7]/[CEM] 4.16, 60° C.): 45.1%

CCCCCCCCCC(=O)Nc1cc(C(F)(F)F)cc(C(F)(F)F)c1 [ASMC9, N-[3,5-bis(trifluoromethyl)phenyl]decanamide]
NaCl - 20° C. % ext (average) [2]: 24.4%
Mol % Cl- extracted from the water to be treated ([2]; 60° C.): 6.9% and 8.0%
Mol % Na+ extracted from the water to be treated ([2]; 60° C.): 5.4% and 5.7%
NaCl - 60° C. % ext (average) ([2]; 60° C.): 6.5%
Mol % Cl- extracted from the water to be treated ([2]; RT): 27.1% and 23.8%
Mol % Na+ extracted from the water to be treated ([2]; RT): 25.2% and 21.7%
Δ % ext [2]: 17.9%

CCCCCCCCCCCC(=O)Nc1cc(C(F)(F)F)cc(C(F)(F)F)c1 [ASMC11, N-[3,5-bis(trifluoromethyl)phenyl]dodecanamide]
NaCl - 20° C. % ext (average) [2]: 23.8%
Mol % Cl- extracted from the water to be treated ([2]; 60° C.): 4.9% and 7.7%
Mol % Na+ extracted from the water to be treated ([2]; 60° C.): 3.4% and 7.1%
NaCl - 60° C. % ext (average) ([2]; 60° C.): 5.8%
Mol % Cl- extracted from the water to be treated ([2]; RT): 24.5% and 25.3%
Mol % Na+ extracted from the water to be treated ([2]; RT): 22.4% and 23.1%
Δ % ext [2]: 18.0%

CCCCCCCCCCCCCC(=O)Nc1cc(C(F)(F)F)cc(C(F)(F)F)c1 [ASMC13, N-[3,5-bis(trifluoromethyl)phenyl]tetradecanamide]
NaCl - 20° C. % ext (average) [2]: 25.0%
Mol % Cl- extracted from the water to be treated ([2]; 60° C.): 6.9% and 9.4%
Mol % Na+ extracted from the water to be treated ([2]; 60° C.): 5.9% and 9.0%
NaCl - 60° C. % ext (average) ([2]; 60° C.): 7.8%
Mol % Cl- extracted from the water to be treated ([2]; RT): 26.2% and 27.4%
Mol % Na+ extracted from the water to be treated ([2]; RT): 22.7% and 23.8%
Δ % ext [2]: 17.2%

Nc1cc(C(F)(F)F)cc(C(F)(F)F)c1 [AnilineF*, 3,5-Di(trifluoromethyl)aniline, reference compound]
NaCl - 20° C. % ext (average) [2]: 2.7%
Mol % Cl- extracted from the water to be treated ([2]; 60° C.): not detected
NaCl - 60° C. % ext (average) ([2]; 60° C.): 0.0%
Mol % Cl- extracted from the water to be treated ([2]; RT): 4.3% and 2.9%
Mol % Na+ extracted from the water to be treated ([2]; RT): 2.0% and 1.8%
Δ % ext [2]: 2.7%
